In patent publication US8058462B2, “Ligand modified poly oxo-hydroxy metal ion materials, their uses and processes for their preparation” (Medical Research Council, priority 2007, dated 2011):

Experiments:
Format in all cases: physicochemical
[1] = In vitro gastrointestinal digestion assay (simulated stomach and duodenum); conditions: pH 1.2
Method: An amount of the solid ligand-modified poly oxo-hydroxy ferric iron materials or control iron materials namely ferrous sulphate, ferric chloride, or unmodified ferric oxo-hydroxide, equivalent to 60 mg elemental iron, were added to a synthetic gastric (stomach) solution (50 mL of 2 g/L NaCl, 0.15 M HCl and 0.3 mg/mL porcine pepsin) and incubated at 37° C. for 30 minutes with radial shaking. […] The mixture was incubated at 37° C. for 60 min with radial shaking. Homogeneous Aliquots (1 mL) were collected at different time points during the process and centrifuged at 13,000 rpm for 10 minutes to separate the aggregate and aquated phases. The supernatant was analysed for iron content by ICPOES. […] The mass of remaining material (i.e. the wet pellet) was recorded. Concentrated HNO3 was added to this wet pellet and the new mass recorded. […] The starting amount of iron was calculated from the iron in the wet pellet plus the iron in the supernatant. To differentiate between soluble iron and aquated particulate iron in the supernatant, at each time point, this fraction was also ultrafiltered (Vivaspin 3,000 Da molecular weight cut-off polyethersulfone membrane, Sartorius Stedium Biotech GmbH, Goettingen, Germany) and again analysed by ICPOES. […]

[2] = Screening assay: re-dissolution of the wet solid in pH 6 and pH 4 buffers; conditions: solid formed with the ligand
Method: A series of dietary ligands was tested in a screening assay for their effects on the formation of solid ligand-modified poly oxo-hydroxy metal ion materials. […] The volumes were then equally adjusted to parity with a solution of 50 mM MOPS and 0.9% NaCl. […] After centrifugation at 2500 rpm for 10 minutes, an aliquot of supernatant was taken to analyse the iron remaining in solution. […] The iron concentration in each aliquot was measured by ICPOES analysis.

[3] = Screening assay: formation (precipitation) of solid poly oxo-hydroxy iron in presence of ligand; conditions: ratios 1:1 to 1:5
Method: A series of dietary ligands was tested in a screening assay for their effects on the formation of solid ligand-modified poly oxo-hydroxy metal ion materials. Briefly, in a centrifuge tube, a fixed volume of stock solution of ferric iron (400 mM FeCl3 with 50 mM MOPS, pH 1.4) was mixed with varying volumes of a stock solution of ligand (400 mM with the exception of maltol which was 200 mM, plus MOPS at 50 mM and 0.9% NaCl) to obtain the desired metal:ligand ratio. The volumes were then equally adjusted to parity with a solution of 50 mM MOPS and 0.9% NaCl. […] A small aliquot was taken to confirm the starting iron concentration and then the pH was raised to ˜6.5 by drop-wise addition of concentrated NaOH to avoid high volume changes. After centrifugation at 2500 rpm for 10 minutes, an aliquot of supernatant was taken to analyse the iron remaining in solution. The remaining supernatant was discarded and a fixed volume of dissolution buffer at pH 6 (MOPS10 mM) or pH 4 (Acetic acid 10 mM) was then added to the wet solid of each tube and incubated overnight at room temperature. The tubes were then centrifuged (2500 rpm for 10 minutes) and an aliquot of supernatant taken to determine the iron that was disaggregated. The iron concentration in each aliquot was measured by ICPOES analysis.
Initially, the ligands were all tested using the screening assay described above at ratios of 1:1 to 1:5 and classified in three groups.

| SMILES | Ligand group by effect on the amount of solid material formed [3] | also measured |
| --- | --- | --- |
| O=S(=O)([O-])[O-].[Fe+2] [Ferrous sulphate, ferrous sulphate] |  | gastric disaggregation and dissolution profile (in words) [1]: disaggregates and dissolves very well |
| Cc1occc(=O)c1O [maltol] |  | re-dissolution of the iron at pH 6.0 (in words) [2]: did not promote any re-dissolution |
| NC(=O)CC[C@H](N)C(=O)O [glutamine] | intermediate ligands |  |
| O=C(O)CC(O)C(=O)O (centres unmarked) [malic acid] | intermediate ligands |  |
| O=C(O)C(O)C(O)C(=O)O (centres unmarked) [tartaric acid] | intermediate ligands |  |
